Measurements as given in ChEMBL document CHEMBL1201862, “PubChem BioAssay data set” (2004).
Where “and” joins values, the source holds several entries; their conditions need not be identical. Equal entries are not always repeated.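 Cultured in 96-well plates, cells were exposed to test compound for 48 hours across five concentrations. GI50: concentration for 50% inhibition of growth.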 Calls of active or inactive are those of the source. Rule as the data show it: active = GI50 up to about 1.1 µM and inactive = higher. Starred links: 1 amine or outer side, 2 acyl side, 3 side chain; linkers in the order of their positions; H or OH if unused. Positions of bridges follow the written chain, without caps; N, C: chain ends. Non-standard residues stand in square brackets, D forms with d. Residues, ends and D or L forms follow the SMILES beside them. Chains are numbered I, II in the order given. Actinocin(9to1) = Cc1c2oc3c(C)ccc(C(=O)[*:1])c3nc-2c(C(=O)[*:2])c(N)c1=O; NMeT = CN[CH](C(=O)O)[CH](C)O; Sar = CNCC(=O)O

Key:
Test in all cases: DTP human tumour cell line panel, 48 h
SW-620 = tested on: SW-620
IGROV-1 = tested on: IGROV-1
HOP-92 = tested on: HOP-92
SK-MEL-28 = tested on: SK-MEL-28
UACC-62 = tested on: UACC-62
ACHN = tested on: ACHN
NCI-H23 = tested on: NCI-H23
SNB-75 = tested on: SNB-75
SN12C = tested on: SN12C
U-251 = tested on: U-251
LOX IMVI = tested on: LOX IMVI
CCRF-CEM = tested on: CCRF-CEM
HOP-62 = tested on: HOP-62
RPMI-8226 = tested on: RPMI-8226
HCT-116 = tested on: HCT-116
SF-268 = tested on: SF-268
MOLT-4 = tested on: MOLT-4
NCI-H460 = tested on: NCI-H460
MDA-N = tested on: MDA-N
K562 = tested on: K562
Hs-578T = tested on: Hs-578T
RXF 393 = tested on: RXF 393
SF-539 = tested on: SF-539
NCI-H522 = tested on: NCI-H522
OVCAR-8 = tested on: OVCAR-8
MCF7 = tested on: MCF7
SK-MEL-2 = tested on: SK-MEL-2
COLO 205 = tested on: COLO 205
SK-MEL-5 = tested on: SK-MEL-5
OVCAR-3 = tested on: OVCAR-3
MDA-MB-231 = tested on: MDA-MB-231
NCI-H226 = tested on: NCI-H226
SR = tested on: SR
EKVX = tested on: EKVX
HCT-15 = tested on: HCT-15
NCI/ADR-RES = tested on: NCI/ADR-RES
SK-OV-3 = tested on: SK-OV-3
A549 = tested on: A549
DU-145 = tested on: DU-145
HCC 2998 = tested on: HCC 2998
A498 = tested on: A498
HT-29 = tested on: HT-29
KM12 = tested on: KM12
CAKI-1 = tested on: CAKI-1
T47D = tested on: T47D
OVCAR-5 = tested on: OVCAR-5
HL-60 = tested on: HL-60
M14 = tested on: M14
786-0 = tested on: 786-0
UO-31 = tested on: UO-31
SF-295 = tested on: SF-295
MDA-MB-435 = tested on: MDA-MB-435
UACC-257 = tested on: UACC-257
TK-10 = tested on: TK-10
Malme-3M = tested on: Malme-3M
SNB-19 = tested on: SNB-19

SMILES: Cc1c2oc3c(C)ccc(C(=O)NC4C(=O)NC(C(C)C)C(=O)N5CCCC5C(=O)N(C)CC(=O)N(C)C(C(C)O)C(=O)OC4C)c3nc-2c(C(=O)NC2C(=O)NC(C(C)C)C(=O)N3CCCC3C(=O)N(C)CC(=O)N(C)C(C(C)O)C(=O)OC2C)c(N)c1=O (centres undefined) (I: TVP[Sar][NMeT] / II: TVP[Sar][NMeT]; ester I:1-I:C, II:1-II:C; linker I:N-II:N via Actinocin(9to1); configuration not given here)
- GI50 (SW-620): > 1 µM (active) and 834 nM (active)
- GI50 (IGROV-1): 512 nM (active) and 914 nM (active)
- GI50 (HOP-92): > 1 µM (active) and 1.9 µM (inactive)
- GI50 (SK-MEL-28): 583 nM (active) and 769 nM (active)
- GI50 (UACC-62): 0.478 µM (active)
- GI50 (ACHN): 1.69 µM (inactive)
- GI50 (NCI-H23): > 1 µM (active) and 1.41 µM (inactive)
- GI50 (SNB-75): 313 nM (active) and 186 nM (active)
- GI50 (SN12C): > 1 µM (active) and 1.26 µM (inactive)
- GI50 (U-251): 495 nM (active) and 369 nM (active)
- GI50 (LOX IMVI): 565 nM (active) and 557 nM (active)
- GI50 (CCRF-CEM): 1.59 µM (inactive) and 957 nM (active)
- GI50 (HOP-62): 1.18 µM (inactive) and 792 nM (active)
- GI50 (RPMI-8226): 0.773 µM (active)
- GI50 (HCT-116): 556 nM (active) and 472 nM (active)
- GI50 (SF-268): > 1 µM (active) and 1.63 µM (inactive)
- GI50 (MOLT-4): > 1 µM (active) and 875 nM (active)
- GI50 (NCI-H460): 470 nM (active) and 401 nM (active)
- GI50 (MDA-N): 1.68 µM (inactive)
- GI50 (K562): 0.586 µM (active)
- GI50 (Hs-578T): 1.46 µM (inactive)
- GI50 (RXF 393): 453 nM (active) and 820 nM (active)
- GI50 (SF-539): 518 nM (active) and 533 nM (active)
- GI50 (NCI-H522): 173 nM (active) and 255 nM (active)
- GI50 (OVCAR-8): 1.1 µM (active)
- GI50 (MCF7): 445 nM (active) and 671 nM (active)
- GI50 (SK-MEL-2): 0.719 µM (active)

SMILES: O=[N+]([O-])/C=C(\CS(=O)(=O)c1ccccc1)c1ccc2c(c1)OCO2
- GI50 (SW-620): 75.3 µM (inactive)
- GI50 (COLO 205): 53.5 µM (inactive)
- GI50 (IGROV-1): 80.5 µM (inactive)
- GI50 (HOP-92): > 100 µM (inactive)
- GI50 (SK-MEL-28): 69.2 µM (inactive)
- GI50 (SK-MEL-5): 45.1 µM (inactive)
- GI50 (OVCAR-3): 28.4 µM (inactive)
- GI50 (MDA-MB-231): 23.1 µM (inactive)
- GI50 (NCI-H226): 30 µM (inactive)
- GI50 (SR): 47.5 µM (inactive)
- GI50 (UACC-62): 48.2 µM (inactive)
- GI50 (EKVX): > 100 µM (inactive)
- GI50 (ACHN): 45.6 µM (inactive)
- GI50 (HCT-15): 37.2 µM
- GI50 (NCI-H23): 5.69 µM (inactive)
- GI50 (SNB-75): > 100 µM (inactive)
- GI50 (NCI/ADR-RES): 19.7 µM (inactive)
- GI50 (SK-OV-3): 33.1 µM (inactive)
- GI50 (A549): 37.8 µM (inactive)
- GI50 (DU-145): 38.9 µM (inactive)
- GI50 (SN12C): 39.7 µM (inactive)
- GI50 (HCC 2998): > 100 µM (inactive)
- GI50 (U-251): 88.5 µM (inactive)
- GI50 (LOX IMVI): 37.2 µM (inactive)
- GI50 (A498): 31.8 µM (inactive)
- GI50 (HT-29): 53.1 µM (inactive)
- GI50 (CCRF-CEM): 560 nM (active)
- GI50 (KM12): 28.4 µM (inactive)
- GI50 (CAKI-1): 29.2 µM (inactive)
- GI50 (T47D): > 100 µM (inactive)
- GI50 (OVCAR-5): 27 µM (inactive)
- GI50 (HOP-62): 92.9 µM (inactive)
- GI50 (RPMI-8226): 87.1 µM (inactive)
- GI50 (HCT-116): 34.8 µM (inactive)
- GI50 (HL-60): 38 µM (inactive)
- GI50 (M14): 20.8 µM (inactive)
- GI50 (SF-268): 27.2 µM (inactive)
- GI50 (786-0): 38.5 µM (inactive)
- GI50 (MOLT-4): 67.9 µM (inactive)
- GI50 (MDA-N): 39.2 µM (inactive)
- GI50 (K562): 66.5 µM (inactive)
- GI50 (Hs-578T): 38.1 µM (inactive)
- GI50 (RXF 393): 64.3 µM (inactive)
- GI50 (SF-539): > 100 µM (inactive)
- GI50 (UO-31): 28.6 µM (inactive)
- GI50 (NCI-H522): 21.7 µM (inactive)
- GI50 (OVCAR-8): 60.1 µM (inactive)
- GI50 (MCF7): 48.2 µM (inactive)
- GI50 (SF-295): 36.7 µM (inactive)
- GI50 (MDA-MB-435): 23.8 µM (inactive)

SMILES: CN1CCC2(CC1)/C(=N/C1CCCCC1)NC(=O)N2c1ccccc1
- GI50 (SW-620): > 100 µM (inactive)
- GI50 (COLO 205): > 100 µM (inactive)
- GI50 (IGROV-1): > 100 µM (inactive)
- GI50 (HOP-92): 43.7 µM (inactive)
- GI50 (SK-MEL-28): > 100 µM (inactive)
- GI50 (SK-MEL-5): > 100 µM (inactive)
- GI50 (UACC-257): > 100 µM (inactive)
- GI50 (MDA-MB-231): > 100 µM (inactive)
- GI50 (NCI-H226): > 100 µM (inactive)
- GI50 (TK-10): > 100 µM (inactive)
- GI50 (SR): > 100 µM (inactive)
- GI50 (UACC-62): > 100 µM (inactive)
- GI50 (EKVX): > 100 µM (inactive)
- GI50 (ACHN): > 100 µM (inactive)
- GI50 (HCT-15): > 100 µM
- GI50 (NCI-H23): > 100 µM (inactive)
- GI50 (SNB-75): > 100 µM (inactive)
- GI50 (NCI/ADR-RES): > 100 µM (inactive)
- GI50 (SK-OV-3): > 100 µM (inactive)
- GI50 (A549): > 100 µM (inactive)
- GI50 (DU-145): > 100 µM (inactive)
- GI50 (SN12C): > 100 µM (inactive)
- GI50 (HCC 2998): > 100 µM (inactive)
- GI50 (U-251): > 100 µM (inactive)
- GI50 (A498): > 100 µM (inactive)
- GI50 (HT-29): > 100 µM (inactive)
- GI50 (CCRF-CEM): > 100000 nM (inactive)
- GI50 (KM12): > 100 µM (inactive)
- GI50 (Malme-3M): > 100 µM (inactive)
- GI50 (T47D): > 100 µM (inactive)
- GI50 (OVCAR-5): > 100 µM (inactive)
- GI50 (HOP-62): > 100 µM (inactive)
- GI50 (SNB-19): > 100 µM (inactive)
- GI50 (RPMI-8226): > 100 µM (inactive)
- GI50 (HCT-116): > 100 µM (inactive)
- GI50 (HL-60): > 100 µM (inactive)
- GI50 (M14): > 100 µM (inactive)
- GI50 (SF-268): > 100 µM (inactive)
- GI50 (786-0): > 100 µM (inactive)
- GI50 (MOLT-4): > 100 µM (inactive)
- GI50 (NCI-H460): > 100 µM (inactive)
- GI50 (Hs-578T): > 100 µM (inactive)
- GI50 (RXF 393): > 100 µM (inactive)
- GI50 (UO-31): > 100 µM (inactive)
- GI50 (OVCAR-8): > 100 µM (inactive)
- GI50 (MCF7): > 100 µM (inactive)
- GI50 (SF-295): > 100 µM (inactive)
